Results taken from paper PMC11428593 (Antibiotics, 2024).
In brackets after ≈: the same amount, converted by molar mass. Several values for one entry are separate records, joined by “and”; a condition that tells them apart may be missing. Equal entries are not always repeated. Where two headings read alike, the source gives them in different places.

Assays:
[1] = system: MRSA USA300LAC; experiment: MIC by broth microdilution (CLSI); format: cell-based, Staphylococcus aureus; settings: for MIC: Staphylococcus aureus, MRSA USA300LAC, MHB, 37 °C, 16 h, read-out: MIC
Experimental: (§1) The MIC values of the alkyl pyridinol derivatives against the S. aureus strain ATCC 25923, MRSA strains ATCC 33591, ATCC BAA-44, and USA300LAC, as well as the P. aeruginosa strain ATCC 27853, were determined by following the CLSI guidelines for the broth microdilution antibiotic sensitivity testing protocol. In brief, the overnight cultures were diluted into Mueller Hinton Broth (MHB) to a final inoculum concentration of 5 × 10^5 CFU/mL (O.D600nm = 0.00001) and dispensed into a 96-well polystyrene plate (Alkali Scientific, Fort Lauderdale, FL, USA). Alkyl pyridine compounds were diluted into inoculated MHB to the indicated concentrations from stock solutions that would allow for DMSO concentrations below 5%, resulting in a total volume of 200 μL per well. The plates were subsequently incubated at 37 °C for 16 h at 300 rpm. The MIC values, which are defined as the lowest compound concentration that inhibited growth, were determined from three biological replicates.

[2] = system: S. aureus strain USA300LAC; experiment: Checkerboard assay with JC-01-074 (FIC index); format: cell-based, Staphylococcus aureus; settings: MHB, 37 °C, 20 h, antibiotic combined with JC-01-074
Experimental: Therefore, we tested whether the membrane-disrupting effects of JC-01-074 could increase the sensitivity of the S. aureus strain USA300LAC to antibiotics of different classes; for instance, by facilitating their uptake into the cytoplasm. […] Antibiotic concentrations were prepared by the microbroth dilution in MHB based on their MIC values (Table 1) to obtain the final concentrations as outlined in the 96-well plate scheme for each antibiotic tested (Supplementary Figure S3). Overnight USA300LAC cultures were diluted to 5 × 10^5 CFU/mL in MHB, and the growth was recorded at 37 °C and 200 rpm for 20 h in the presence and absence of the indicated antibiotic.
FICs were calculated as the ratio of the MIC of the antimicrobial in combination with the MIC of the antimicrobial alone. Interactions were categorized as synergistic (<0.5), additive or no interaction (0.5–2), and antagonistic (>2). FICs were calculated from three biological replicates.
Following previous studies, the checkerboard assay was employed to determine whether JC-01-074 had synergistic effects in combination with members of different antibiotic classes. The indicated antibiotics tested in combination were first serially diluted two-fold in MHB on a longitudinal axis in a 96-well polystyrene plate. JC-01-074 was then serially diluted two-fold across the 96-well plate horizontal axis. The plates were inoculated with USA300LAC to a final inoculum concentration of 5 x10^5 CFU/mL (O.D.600nm = 0.0001) and incubated overnight at 37 °C for 20 h. The growth was measured at 600 nm in a Tecan 200 Infinite Pro microplate reader. The fractional inhibitory concentration was calculated as follows:FIC = MICJC-01-074 + antibiotics/[…]
The classification of interactions was based on the FIC index: interactions were categorized as synergistic (FIC ≤ 0.5), additive/no interaction (FIC 0.5–2.0), and antagonistic (FIC > 2.0).

[3] = system: MRSA ATCC 33591; experiment: MIC by broth microdilution (CLSI); format: cell-based; settings: Staphylococcus aureus, MHB, 37 °C, 16 h
Excerpt: (§2) To assess the impact of the nitrogen position in our newly synthesized anaephene derivates, we analyzed their antimicrobial activities against various S. aureus strains, including ATCC 25,923 and the two methicillin-resistant S. aureus (MRSA) strains ATCC 33,591 and ATCC BAA-44. […] We determined the minimum inhibitory concentrations (MIC) of each of our compounds against the different bacterial strains by broth microdilution following the CLSI guidelines. As expected, all five compounds tested were completely ineffective against the Gram-negative P. aeruginosa strain ATCC 27,853 (Table 1).
as §1

[4] = system: MRSA ATCC BAA-44; experiment: MIC by broth microdilution (CLSI); format: cell-based; settings: Staphylococcus aureus, MHB, 37 °C, 16 h
Excerpt: as §2, §1

[5] = system: P. aeruginosa ATCC 27853; experiment: MIC by broth microdilution (CLSI); format: cell-based; settings: Pseudomonas aeruginosa, ATCC27853, MHB, 37 °C, 16 h
Excerpt: as §2, §1

[6] = system: S. aureus ATCC 25923; experiment: MIC by broth microdilution (CLSI); format: cell-based; settings: Staphylococcus aureus, ATCC25923, MHB, 37 °C, 16 h
Excerpt: as §2, §1

[7] = system: S. aureus/MRSA strains; experiment: MIC by broth microdilution, S. aureus/MRSA strains; format: cell-based, Staphylococcus aureus; settings: for MIC: Staphylococcus aureus, MRSA, S. aureus/MRSA strains tested, strain not singled out, read-out: MIC
Excerpt: as §2, §1

[8] = system: MRSA USA300LAC; experiment: Minimal bactericidal concentration (MBC); format: cell-based, Staphylococcus aureus; settings: for bactericidal or bacteriostatic effect: USA300LAC, in words
Experimental: In brief, 10 µL of each culture was serially diluted and plated onto prewarmed LB agar and incubated overnight at 37 °C under static conditions to observe the colony-forming units (CFUs). The concentration at which no CFUs were observed was recorded as the MBC.

[9] = system: 3T3 mouse embryonic fibroblast cells; experiment: MTT cytotoxicity assay; format: cell-based; settings: 3T3 cells; for IC50: Mus musculus, NIH3T3, 24 h
Experimental: To gauge the potential for toxicity of the new alkyl pyridinol derivates, we tested their cytotoxicity by examining the metabolic activity of 3T3 mouse embryonic fibroblast cells using the tetrazolium dye 3-(4,5-dimethylthiazol-2-yl)-2,5-diphenyltetrazolium bromide (MTT), as has been done before. The dye is reduced by NAD(P)H-dependent cellular oxidoreductases, resulting in the formation of the insoluble formazan with its purple color, which can be quantified. 3T3 cells were treated with different concentrations of the alkyl pyridinol compounds for 24 h, and the absorbance of the MTT-treated cell culture supernatant was measured at 540 nm. Absorbances were plotted against concentrations of the compound added (Supplementary Figure S2), and IC50, the concentration of a drug required for 50% metabolic inhibition, was calculated for each compound. […] However, the concentrations at which these compounds compromise 3T3 mouse embryonic fibroblast cells are well above their reported MICs (Table 2).
3T3 cells (male mouse embryonic fibroblast Flp-In cells, Thermo Fisher, Waltham, MA, USA) were cultured in D-MEM (Corning, Corning, NY, USA) supplemented with 10% Fetal Clone III (Cytiva Hyclone, Bengaluru, India) and L-Glutamine (Alfa Aesar, Haverhill, MA, USA) at 37 °C and 5% CO2. To determine the compound’s toxicity, 3T3 cells were seeded at a density of 10,000 cells/well into 96-well plates (Fisherbrand, Waltham, MA, USA) and cultured as described above. After 16 h, the culture medium was extracted and replaced by supplemented D-MEM without phenol red (Corning, Glendale, AZ, USA) containing individual compounds in the indicated concentrations. Furthermore, 1% sodium dodecyl sulfate (SDS) and 2% dimethyl sulfoxide (DMSO), equivalent to the volume of the DMSO in the highest compound concentration, were used as the cell death and vehicle control, respectively. Moreover, 16 h after compound treatment, the culture medium was extracted again and replaced by fresh supplemented D-MEM without phenol red. Subsequently, 10 µL of 5 mg/mL MTT reagent (Alfa Aesar, Haverhill, MA, USA), dissolved in DMSO, was added to each well, and the cells were incubated for 2 h at 37 °C and 5% CO2. Next, 85 µL of the culture supernatant was removed from each well, mixed with 50 µL of DMSO, and incubated in an optical grade 96-well plate (Fisherbrand, Waltham, MA, USA) in a shaking incubator at 37 °C and 250 rpm. The absorbance of the MTT-treated cell culture supernatant was measured at 540 nm in an ELx808 plate reader (Biotek, Winooski, VT, USA).

[10] = system: USA300LAC cells; experiment: Propidium iodide uptake assay (membrane damage); format: cell-based, Staphylococcus aureus; settings: up to 2× MIC, 1 h exposure
Excerpt: The alkyl pyridinol derivates synthesized in this study are characterized by high lipophilicity. To determine whether and to what extent these compounds incorporate into and disrupt the phospholipid bilayer of the S. aureus cell envelope, we performed a propidium iodide (PI) uptake assay. Given the membrane-impermeable nature of PI, the fluorophore can be used to assess membrane disruption in cells by measuring its non-specific interaction with DNA, which leads to enhanced fluorescence. […] The extent of membrane damage caused by JC-01-074 occurred in a dose-dependent manner.
Figure 4 JC-01-074 causes significant membrane damage in S. aureus. Membrane damage was evaluated via propidium iodide (PI) staining. […] Treatment of USA300LAC with 2.5% DMSO, 4 µg/mL vancomycin, and 0.25% SDS were included as negative and positive controls, respectively. Cells were collected, washed, resuspended in PBS, and stained with 1 µM PI. PI fluorescence was measured (exc./em. wavelengths: 535/615 nm) and normalized to OD600nm. One-way ANOVA, Dunnett’s multiple-comparison test (* p < 0.05, **** p < 0.0001); (n = 3, ±S.D.).
The plasma membrane integrity was determined using the Propidium Iodide Uptake assay, as previously described. Briefly, the overnight cultures of USA300LAC were diluted into fresh TSB media, grown to an early log phase at 37 °C and 300 rpm, and treated with either DMSO, an alkyl pyridinol derivate, vancomycin, or SDS at the indicated concentrations for 1 h. Following two washing steps, the cells were then resuspended in phosphate-buffered saline (PBS), pH = 7.4, and subsequently stained with 1 µM propidium iodide (PI). The PI fluorescence intensity was determined at an excitation wavelength of 535 nm and an emission wavelength of 615 nm.

[11] = 24 h treatment, mean ± S.D., read-out: IC50

## CC1(C)S[C@@H]2[C@H](NC(=O)[C@H](N)c3ccccc3)C(=O)N2[C@H]1C(=O)O [Ampicillin]
[1]
  MIC: 2.33 mg/L (≈ 6.67 µM)
[2]
  interaction with JC-01-074 (sum of FIC values): additive (additive/no interaction (FIC 0.5–2.0))

## O=C(N[C@H](CO)[C@H](O)c1ccc([N+](=O)[O-])cc1)C(Cl)Cl [Chloramphenicol]
[1]
  MIC: 4 mg/L (≈ 12.4 µM)

## O=C(O)c1cn(C2CC2)c2cc(N3CCNCC3)c(F)cc2c1=O [Ciprofloxacin]
[2]
  interaction with JC-01-074 (sum of FIC values): antagonistic (antagonistic (FIC > 2.0))

## C[C@H]1c2cccc(O)c2C(=O)C2=C(O)[C@]3(O)C(=O)C(C(N)=O)=C(O)[C@@H](N(C)C)[C@@H]3[C@@H](O)[C@@H]21 [Doxycycline]
[1]
  MIC: 0.125 mg/L (≈ 0.281 µM)
[2]
  interaction with JC-01-074 (sum of FIC values): antagonistic (antagonistic (FIC > 2.0))

## CCCCCCCCCC#Cc1cc(O)cc(Br)n1 [EA-02-009]
[3]
  MIC: 0.5 mg/L (≈ 1.54 µM)
[4]
  MIC: 1 mg/L (≈ 3.08 µM)
[5]
  MIC: > 128 mg/L
[6]
  MIC: 1 mg/L (≈ 3.08 µM)
[1]
  MIC: 32 mg/L (≈ 98.7 µM)
[7]
  MIC: 0.5 to 1 mg/L (≈ 1.54 to 3.08 µM)
[8]; Staphylococcus aureus, MRSA USA300LAC, concentration at which no CFUs were observed
  MBC: > 128 mg/L
[8]
  bactericidal or bacteriostatic effect: bacteriostatic
[8]; listed as EA-002-009
  bactericidal or bacteriostatic effect: no significant killing
[9]; 24 hours, one value per biological replicate, listed as EA-02-09
  IC50 of single biological replicates (Figure S2): 16.1 µg/ml and 17.4 µg/ml and 31.4 µg/ml and 73.2 µg/ml
[9]; [11]
  IC50: 107 ± 82.3 µM
[10]
  changes in PI intensity: minimal changes

## CCCCCCCCCC#Cc1cc(O)ccn1 [EA-02-011]
[3]
  MIC: 32 mg/L (≈ 130 µM)
[4]
  MIC: 32 mg/L (≈ 130 µM)
[5]
  MIC: > 128 mg/L
[6]
  MIC: 32 mg/L (≈ 130 µM)
[7]
  MIC: 32 mg/L (≈ 130 µM)
[9]; 24 hours, one value per biological replicate, listed as EA-02-11
  IC50 of single biological replicates (Figure S2): 10.9 µg/ml and 8.6 µg/ml
[9]; 24 hours, one value per biological replicate, read-out: IC50 of single biological replicates (Figure S2)
  IC50: 12.7 mg/L
[9]; [11]
  IC50: 43.6 µM and 10.7 µg/mL

## CNC(C)C1CCC(N)C(OC2C(N)CC(N)C(OC3OCC(C)(O)C(NC)C3O)C2O)O1 (stereo not drawn) [Gentamycin]
[1]
  MIC: 1 mg/L (≈ 2.09 µM)
[2]
  interaction with JC-01-074 (sum of FIC values): additive (additive/no interaction (FIC 0.5–2.0))

## CCCCCCCCCC#Cc1cc(O)cc(C#CCCCCCCCCC)n1 [JC-01-083]
[3]
  MIC: > 128 mg/L
[4]
  MIC: > 128 mg/L
[5]
  MIC: > 128 mg/L
[6]
  MIC: > 128 mg/L
[7]; in words
  antimicrobial activity against S. aureus/MRSA strains: completely inactive
[9]; 24 hours, one value per biological replicate, listed as JC-01-83
  IC50 of single biological replicates (Figure S2): 32 µg/ml and 43.5 µg/ml and 27.7 µg/ml and 20.8 µg/ml
[9]; [11]
  IC50: 78.2 µM and 31 µg/mL

## CCCCCCCCCC(=O)N[C@@H](Cc1c[nH]c2ccccc12)C(=O)N[C@H](CC(N)=O)C(=O)N[C@@H](CC(=O)O)C(=O)N[C@@H]1C(=O)NCC(=O)N[C@@H](CCCN)C(=O)N[C@@H](CC(=O)O)C(=O)N[C@H](C)C(=O)N[C@@H](CC(=O)O)C(=O)NCC(=O)N[C@H](CO)C(=O)N[C@@H]([C@H](C)CC(=O)O)C(=O)N[C@@H](CC(=O)c2ccccc2N)C(=O)O[C@@H]1C [daptomycin]
[1]; USA300LAC, stated in figure legend
  MIC (1× MIC as used for microscopy): 4 mg/L
